# Assay results taken from paper PMC10700673, “A Smart Intracellular Self‐Assembling Bioorthogonal Raman Active Nanoprobe for Targeted Tumor Imaging” (Advanced Science, 2023).
# Tests used:
# [1] = system: DU145, LNCaP, and RWPE1 cells; test: cell viability, Trypan blue cell counting; format: cell-based; details: 48 h of incubation, % of untreated control, three independent experiments
# Source text: To confirm that the nanoSABER nanoprobe can effectively differentiate between cells with high and low levels of legumain expression, we examined nanoSABER assembly in DU145, LNCaP, and RWPE1 cells. DU145 and LNCaP are legumain overexpressing and low‐expressing prostate cancer cell lines, respectively, whereas RWPE1 is a normal prostate epithelium cell line. Legumain‐overexpressing tumorigenic cells are aggressive in terms of migration and invasion.^[ [33] ^] Therefore, designing new probes for targeted imaging of legumain expression is of great significance for tumor diagnosis and tumor staging. […] A combination of both high endogenous GSH and high legumain levels is necessary in order for DU145 cells to uncage the thiol and amino groups in the nanoSABER, triggering intramolecular cyclization to form alkyne‐dimers.
# For cell viability testing, the total numbers of DU145, LNCaP, and RWPE1 cells were counted after staining with Trypan blue using an Invitrogen Countess 3 automated cell counter. Cells were incubated with nanoSABER at different concentrations. Cell viability was calculated as a percentage of control (untreated cells) set at 100%. Data were expressed as mean ± standard deviation. from three independent experiments.
# [2] = self-assembly into nanoparticles, TEM and DLS; format: physicochemical; details: probe solution without legumain enzyme
# Description: To accurately evaluate the efficiency of the R6‐AAN‐alkyne‐nitrile nanoprobe, time‐dependent Raman measurements were performed (Figure 2g), where the ratio of alkyne/nitrile peak intensity was used as an indicator of the reaction progress. We found as the reaction progressed the alkyne/nitrile peak intensity increased from 0.22±0.01 to 4.4±0.12 and plateaued at a final value of 4.6±0.12 indicating almost complete conversion of nanoSABER to alkyne‐dimer within 3 h. […] To further get insight into the structural arrangements of the self‐assembled dimers, transmission electron microscopy (TEM) was performed. […]
# All materials were sourced from Sigma, Chem Impex, or Thermo Fisher and used as received, with purification performed only when explicitly indicated. […] The mass of synthesized peptides was determined using Bruker AutoFLex III Maldi‐TOF or Voyager DE‐STR MALDI‐TOF mass spectrometers. ^1H NMR spectra were obtained on a 400 MHz Bruker Avance at 27 °C in dimethylsulfoxide (DMSO)‐d6. Ultraviolet–visible (UV–Vis) absorption spectra were recorded with a Perkin Elmer Lambda 950 UV–Vis spectrophotometer. […] High‐resolution fluorescence imaging was performed using a Leica SP8 confocal microscope equipped with a 63× oil‐immersion objective. The size distribution of nanoparticles was determined using dynamic light scattering (DLS) (Zetasizer Nano, Malvern Instruments) at room temperature (RT). […]
substance,measurement,setting,value
Ac‐Arg‐Arg‐Arg‐Arg‐Arg‐Arg‐Ala‐Ala‐Asn‐Cys(StBu)‐Pra‐Lys‐CBT [nanoSABER],toxic concentration (no toxicity up to),[1],> 250 µM
same,nanoparticles in TEM before addition of legumain,[2],did not show any detectable nanoparticles
